ChEMBL document CHEMBL5137110, “Production of Multiple Talaroenamines from Penicillium malacosphaerulum via One-Pot/Two-Stage Precursor-Directed Biosynthesis” (J Nat Prod, 2022)
Values after ≈ are worked out from the molar mass of the structure shown. Where a name gives a salt, the structure may show the parent alone.

Key:
H69AR = test: Cytotoxicity against human H69AR cells assessed as reduction in cell viability by SRB assay; assay type: functional, cell-based
K562 = test: Cytotoxicity against human K562 cells assessed as reduction in cell viability by MTT assay; assay type: functional, cell-based
ASPC1 = test: Cytotoxicity against human ASPC1 cells assessed as reduction in cell viability by SRB assay; assay type: functional, cell-based
L02 = test: Cytotoxicity against human L02 cells assessed as reduction in cell viability by SRB assay; assay type: functional, cell-based
MDA-MB-231 = test: Cytotoxicity against human MDA-MB-231 cells assessed as reduction in cell viability by SRB assay; assay type: functional, cell-based
Bacillus cereus = test: Antibacterial activity against Bacillus cereus assessed as inhibition of bacterial growth incubated for 18 to 20 hrs by agar dilution method; assay type: functional; conditions: time 18-20 hrs
Escherichia coli = test: Antibacterial activity against Escherichia coli assessed as inhibition of bacterial growth incubated for 18 to 20 hrs by agar dilution method; assay type: functional; conditions: time 18-20 hrs
Proteus = test: Antibacterial activity against Proteus species assessed as inhibition of bacterial growth incubated for 18 to 20 hrs by agar dilution method; assay type: functional; conditions: time 18-20 hrs

| Compound | IC50 (H69AR) [µM] | IC50 (K562) [µM] | IC50 (ASPC1) [µM] | IC50 (L02) [µM] | IC50 (MDA-MB-231) [µM] | MIC (Bacillus cereus) [µg/mL] | MIC (Escherichia coli) [µg/mL] | MIC (Proteus) [µg/mL] |
| --- | --- | --- | --- | --- | --- | --- | --- | --- |
| CC1=CC(=O)[C@@](C)(O)C(=O)/C1=C\Nc1ccc(F)cc1Br | > 30 | 2.8 | > 30 | 20.9 | > 30 | – | – | – |
| CC1=CC(=O)[C@@](C)(O)C(=O)/C1=C\Nc1ccc(Cl)c(Cl)c1 | – | – | – | – | – | 16.3 (≈ 50 µM) | 16.3 (≈ 50 µM) | 16.3 (≈ 50 µM) |
| CC1=CC(=O)[C@@](C)(O)C(=O)/C1=C\Nc1cccc(C(N)=O)c1 | > 30 | 2.2 | > 30 | 17 | > 30 | – | – | – |
| CC1=CC(=O)[C@@](C)(O)C(=O)/C1=C\Nc1ccc(C(=O)O)cc1 | 9.6 | 8.5 | > 30 | 16.1 | > 30 | – | – | – |
| COc1cccc2c1C(=O)c1c(O)c3c(c(O)c1C2=O)C[C@@](O)(C(=O)CO)C[C@@H]3O[C@H]1C[C@H](N)[C@H](O)[C@H](C)O1 [DOXORUBICIN HYDROCHLORIDE] | 15.1 | – | – | 0.2 | 0.3 | – | – | – |
